For assay [1], the system named is TLR2 induced IL-6 in peripheral blood mononuclear cells (PBMCs). The experiment in a line: PBMC TLR2 Induced IL-6 Assay. The format is cell-based, human. Particulars: human PBMCs, lipoteichoic acid stimulated, IL-6 by ELISA; for IC50: read-out: Cell IC50; for EC50: read-out: Cell EC50. A digest of the protocol:
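Lipoteichoic acid at 10 µg/ml served as TLR2 stimulus for 5 hours, following a 30-minute compound pretreatment at 37° C. Cells were Ficoll-isolated human PBMCs, 250000 cells/well, cultured in RPMI plus 10% heat-inactivated FCS.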

The target of assay [2] is IRAK4 (Homo sapiens (Human), UniProt Q9NWZ3). The experiment in a line: IRAK4 Inhibition Assay. The assay is classed as biochemical. Conditions: ATP 500 μM; IRAK4 0.6 nM; read-out: IRAK4 IC50. A digest of the protocol: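 Mobility-shift readout: fluorescent substrate and phosphoproduct resolved electrophoretically on Caliper LabChip 3000 after EDTA quench (35 mM). Enzyme reaction of IRAK4, substrates and test compound ran 60 min at room temperature.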

The text below walks through data of patent US9169252B2 (BRISTOL-MYERS SQUIBB COMPANY, priority 2014, dated 2015).

Where two headings read alike, the source gives them in different places.

Sequence of IRAK4 (Q9NWZ3 whole entry, species assumed): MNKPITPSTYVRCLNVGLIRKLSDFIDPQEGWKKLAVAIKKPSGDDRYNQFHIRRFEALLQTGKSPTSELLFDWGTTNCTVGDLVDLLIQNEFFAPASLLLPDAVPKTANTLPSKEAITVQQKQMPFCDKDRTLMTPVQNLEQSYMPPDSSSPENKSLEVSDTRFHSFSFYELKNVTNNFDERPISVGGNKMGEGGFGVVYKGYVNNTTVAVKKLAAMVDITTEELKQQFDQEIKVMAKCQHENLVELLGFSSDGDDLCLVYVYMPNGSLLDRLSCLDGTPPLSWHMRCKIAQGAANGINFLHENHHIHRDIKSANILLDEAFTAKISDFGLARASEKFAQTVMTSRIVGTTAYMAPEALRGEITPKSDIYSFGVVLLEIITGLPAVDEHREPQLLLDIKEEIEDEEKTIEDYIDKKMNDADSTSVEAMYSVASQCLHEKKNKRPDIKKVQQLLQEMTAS

With `Cn1cc(Nc2cc(-n3ccc4cc(C#N)cnc43)ncc2C(=O)NC[C@@H](F)C(C)(C)O)cn1` [Example 399], the IC50 in assay [1] (Homo sapiens, PBMC) amounted to 24 nM; in assay [2] it was 1.3 nM.
In the same order, the values of `CC(C)(O)[C@H](F)CNC(=O)c1cnc(-n2cnc3cc(Cl)cnc32)cc1Nc1cnn(C(F)F)c1` [Example 400] are 156 nM and 7.8 nM.
In the same order, the values of `CC(C)(O)[C@H](F)CNC(=O)c1cnc(-n2cnc3cc(C#N)cnc32)cc1Nc1cnn(C(F)F)c1` [Example 401] are 485 nM and 5.7 nM.
With `CC(C)(F)[C@H](F)CNC(=O)c1cnc(-n2cnc3cc(Cl)cnc32)cc1Nc1cnn(CC(F)F)c1` [Example 402], the IC50 in assay [1] (Homo sapiens, PBMC) was determined as 412 nM; in assay [2] it was 2.5 nM.
Taken in the same sequence, the figures for `CC(C)(F)[C@H](F)CNC(=O)c1cnc(-n2cnc3cc(C#N)cnc32)cc1Nc1cnn(CC(F)F)c1` [Example 403] were 147 nM and 2.5 nM.
Take `CC(C)(O)[C@H](F)CNC(=O)c1cnc(-n2ncc3cc(C#N)cnc32)cc1Nc1cc(C2CC2)n[nH]1` [Example 404]: the IC50 in assay [1] (Homo sapiens, PBMC) was 164 nM; in assay [2], 1.1 nM.
Taken in the same sequence, the figures for `Cc1cc(Nc2cc(-n3ncc4cc(C#N)cnc43)ncc2C(=O)NC[C@@H](F)C(C)(C)O)[nH]n1` [Example 405] were 561 nM and 6.2 nM.
In the same order, the values of `CC(C)c1cc(Nc2cc(-n3ncc4cc(C#N)cnc43)ncc2C(=O)NC[C@@H](F)C(C)(C)O)[nH]n1` [Example 406] are 66 nM and 4.8 nM.
In the same order, the values of `CC(C)(O)[C@H](F)CNC(=O)c1cnc(-n2ncc3cc(C#N)cnc32)cc1Nc1ccn(CC(F)F)n1` [Example 407] are 287 nM and 3.1 nM.
Consider `CC(C)(O)[C@H](F)CNC(=O)c1cnc(-n2ncc3cc(C#N)cnc32)cc1Nc1ccn(CC(F)(F)F)n1` [Example 408], for which the IC50 in assay [1] (Homo sapiens, PBMC) was determined as 73 nM; in assay [2] it was 1.8 nM.
As to `Cn1nccc1Nc1cc(-n2ncc3cc(C#N)cnc32)ncc1C(=O)NC[C@@H](F)C(C)(C)O` [Example 409], in assay [1] (Homo sapiens, PBMC), the EC50 came to 463 nM. Moreover, in assay [2], the IC50 is 17.5 nM.
Taken in the same sequence, the figures for `CC(C)(O)[C@H](F)CNC(=O)c1cnc(-n2ncc3cc(C#N)cnc32)cc1Nc1cnn(-c2ncccn2)c1` [Example 410] were 92 nM and 1.5 nM.
In the same order, the values of `CC(C)(O)[C@H](F)CNC(=O)c1cnc(-n2ncc3cc(C#N)cnc32)cc1Nc1cnn(-c2ncc(F)cn2)c1` [Example 411] are 51 nM and 1.6 nM.
Regarding `CC(C)(O)[C@H](F)CNC(=O)c1cnc(-n2ncc3cc(C#N)cnc32)cc1Nc1cc(-c2ccccc2)n[nH]1` [Example 412], the IC50 was found to be 53 nM in assay [1] (Homo sapiens, PBMC) and 3.6 nM in assay [2].
In the same order, the values of `Cc1cc(Nc2cc(-n3ncc4cc(C#N)cnc43)ncc2C(=O)NC[C@@H](F)C(C)(C)O)n(C)n1` [Example 413] are 382 nM and 7 nM.
Regarding `CC(C)Nc1cc(-n2ccc3cc(C#N)cnc32)ncc1C(=O)NC12CCC(O)(CC1)C2` [Example 415], in assay [1] (Homo sapiens, PBMC), the EC50 amounted to 286 nM. Besides, the IC50 in assay [2] came out at 14.8 nM.
Taken in the same sequence, the figures for `CC(C)(O)[C@H](F)CNC(=O)c1cnc(-n2ccc3cc(C#N)cnc32)cc1Nc1cccc(S(N)(=O)=O)c1` [Example 416] were 58 nM and 1.9 nM.
In the same order, the values of `CC(C)Nc1cc(-n2ccc3cc(C#N)cnc32)ncc1C(=O)NCCCOC(C)(C)C` [Example 417] are 171 nM and 5.5 nM.
Taken in the same sequence, the figures for `COc1cccc(Nc2cc(-n3ccc4cc(C#N)cnc43)ncc2C(=O)NC[C@@H](F)C(C)(C)O)c1` [Example 418] were 65 nM and 4.4 nM.
For `CC(C)(O)/C=C/Nc1cc(-n2ccc3cc(C#N)cnc32)ncc1C(=O)NC[C@@H](F)C(C)(C)O` [Example 419], the EC50 in assay [1] (Homo sapiens, PBMC) is 107 nM. For the same compound, the IC50 in assay [2] came out at 4.8 nM.
In the same order, the values of `CC(C)Nc1cc(-n2ccc3cc(C#N)cnc32)ncc1C(=O)N[C@H]1CC[C@@](F)(c2nccn2C)CC1` [Example 420] are 186 nM and 4.4 nM.
As for `CC(C)(O)[C@H](F)CNC(=O)c1cnc(-n2ccc3cc(C#N)cnc32)cc1Nc1ccc2ncoc2c1` [Example 421], the IC50 in assay [1] (Homo sapiens, PBMC) is 167 nM; in assay [2], 1.9 nM.
Regarding `CC(O)CCNc1cc(-n2ccc3cc(C#N)cnc32)ncc1C(=O)NC[C@@H](F)C(C)(C)O` (stereo partly drawn) [Example 422], the EC50 in assay [1] came out at 4 nM. For the same compound, the IC50 in assay [2] turned out to be 2.3 nM.
In the case of `Cn1nccc1Nc1cc(-n2ccc3cc(C#N)cnc32)ncc1C(=O)NC[C@@H](F)C(C)(C)O` [Example 424], in assay [1], the EC50 was 338 nM. In addition, the half-maximal inhibitory concentration (IC50) in assay [2] amounted to 6 nM.
As to `CC(C)(O)[C@H](F)CNC(=O)c1cnc(-n2ccc3cc(C#N)cnc32)cc1NCCC(F)(F)F` [Example 425], the EC50 in assay [1] (Homo sapiens, PBMC) stood at 154 nM. The IC50 in assay [2] is 1.8 nM.
Turning to `CC(C)(O)[C@H]1CC[C@H](NC(=O)c2cnc(-n3ccc4cc(F)cnc43)cc2NC2CC2)CC1` [Example 428], the EC50 in assay [1] (Homo sapiens, PBMC) was 361 nM. Besides, in assay [2], the IC50 amounted to 4.6 nM.
Taken in the same sequence, the figures for `CC(C)(O)[C@H]1CC[C@H](NC(=O)c2cnc(-n3ccc4cc(C#N)cnc43)cc2NC2CC2)CC1` [Example 429] were 92 nM and 1.5 nM.
In the same order, the values of `CC(C)(O)[C@H](F)CNC(=O)c1cnc(-n2ccc3cc(C#N)cnc32)cc1Nc1cccc(C#N)c1F` [Example 430] are 208 nM and 2.1 nM.
Taken in the same sequence, the figures for `CC(C)(O)[C@H](F)CNC(=O)c1cnc(-n2ccc3cc(C#N)cnc32)cc1Nc1cccc(-c2ncc[nH]2)c1` [Example 431] were 106 nM and 2.1 nM.
As for `C[C@@H](CO)Nc1cc(-n2ccc3cc(F)cnc32)ncc1C(=O)N[C@H]1CC[C@H](C(C)(C)O)CC1` [Example 432], the EC50 in assay [1] (Homo sapiens, PBMC) came out at 80 nM. The IC50 in assay [2] amounted to 2.1 nM.
On to `CCn1nnnc1-c1ccc(Nc2cc(-n3ccc4cc(C#N)cnc43)ncc2C(=O)NC[C@@H](F)C(C)(C)O)cc1` [Example 433], for which the EC50 in assay [1] (Homo sapiens, PBMC) stood at 164 nM. In addition, the IC50 in assay [1] (Homo sapiens, PBMC) is 499 nM; in assay [2], 4.1 nM.
For the compound `CC(C)NC(=O)[C@H](F)CNc1cc(-n2ccc3cc(C#N)cnc32)ncc1C(=O)NC[C@@H](F)C(C)(C)O` [Example 435], the EC50 in assay [1] (Homo sapiens, PBMC) amounted to 291 nM. Further, the IC50 in assay [2] was 9.9 nM.
For the compound `CC(C)(O)[C@H](F)CNC(=O)c1cnc(-n2ccc3cc(C#N)cnc32)cc1Nc1ccc2nn[nH]c2c1` [Example 436], in assay [1] (Homo sapiens, PBMC), the EC50 was 165 nM. Further, the half-maximal inhibitory concentration (IC50) in assay [2] is 1.8 nM.
In the same order, the values of `CC(C)(O)[C@H](F)CNC(=O)c1cnc(-n2ccc3cc(C#N)cnc32)cc1NC1COC1` [Example 437] are 42 nM and 1 nM.
Taken in the same sequence, the figures for `CC(C)(O)[C@H](F)CNC(=O)c1cnc(-n2ccc3cc(C#N)cnc32)cc1Nc1ccc2[nH]ncc2c1` [Example 438] were 33 nM and 2.5 nM.
Taken in the same sequence, the figures for `CC(C)(O)[C@H](F)CNC(=O)c1cnc(-n2ccc3cc(C#N)cnc32)cc1Nc1ccc2nc[nH]c2c1` [Example 439] were 73 nM and 2.6 nM.
Turning to `CC(C)(O)[C@H](F)CNC(=O)c1cnc(-n2ccc3cc(C#N)cnc32)cc1N[C@@H]1CCOC1` [Example 440], the EC50 in assay [1] (Homo sapiens, PBMC) turned out to be 72 nM. Also, the IC50 in assay [2] is 1.9 nM.
`CC(C)(O)[C@H](F)CNC(=O)c1cnc(-n2ccc3cc(C#N)cnc32)cc1N[C@H]1CCOC1` [Example 441]: the EC50 in assay [1] (Homo sapiens, PBMC) stood at 109 nM. Also, the IC50 in assay [2] turned out to be 3 nM.
Taken in the same sequence, the figures for `CC(C)Nc1cc(-n2ccc3cc(C#N)cnc32)ncc1C(=O)NC1CCN(S(C)(=O)=O)CC1` [Example 447] were 92 nM and 5.3 nM.
In the same order, the values of `CCOC(C)(C)[C@H](F)CNC(=O)c1cnc(-n2ccc3cc(C#N)cnc32)cc1NC(C)C` [Example 448] are 175 nM and 2.4 nM.
As for `CC(C)(O)[C@H](F)CNC(=O)c1cnc(-n2ccc3cc(C#N)cnc32)cc1N[C@@H]1CCN(c2ncc(F)cn2)C1` [Example 449], in assay [1] (Homo sapiens, PBMC), the EC50 was determined as 82 nM and the IC50 came out at 59 nM. Also, in assay [2], the IC50 came out at 1.5 nM.
Taken in the same sequence, the figures for `C[C@@H](Nc1cc(-n2ccc3cc(C#N)cnc32)ncc1C(=O)NC[C@@H](F)C(C)(C)O)C1CC1` [Example 450] were 268 nM, 438 nM and 2.8 nM.
`C[C@H](Nc1cc(-n2ccc3cc(C#N)cnc32)ncc1C(=O)NC[C@@H](F)C(C)(C)O)C1CC1` [Example 451]: the EC50 in assay [1] (Homo sapiens, PBMC) came to 429 nM. For the same compound, the half-maximal inhibitory concentration (IC50) in assay [2] was found to be 4.4 nM.
Consider `CC(C)Nc1cc(-n2ccc3cc(C#N)cnc32)ncc1C(=O)NCCNS(=O)(=O)N1CCOCC1` [Example 452], for which, in assay [1] (Homo sapiens, PBMC), the EC50 turned out to be 700 nM and the concentration for half-maximal inhibition (IC50) is 252 nM. Further, in assay [2], the IC50 is 5.2 nM.
In the same order, the values of `CS(=O)(=O)NCCNC(=O)c1cnc(-n2ccc3cc(C#N)cnc32)cc1NC1CC1` [Example 453] are 213 nM, 326 nM and 4.4 nM.
On to `CC(C)(O)[C@H](F)CNC(=O)c1cnc(-n2ccc3cc(C#N)cnc32)cc1N[C@@H]1COC[C@H]1O` [Example 455], for which the EC50 in assay [1] is 72 nM. In addition, the IC50 in assay [2] came to 2.2 nM.
Taken in the same sequence, the figures for `CC(C)(O)[C@H](F)CNC(=O)c1cnc(-n2ccc3cc(C#N)cnc32)cc1N[C@@H]1COC[C@H]1O` [Example 456] were 241 nM and 4.8 nM.
